Experimental data taken from ChEMBL document CHEMBL5154883, “Conformational Constrained 4-(1-Sulfonyl-3-indol)yl-2-phenylaminopyrimidine Derivatives as New Fourth-Generation Epidermal Growth Factor Receptor Inhibitors Targeting T790M/C797S Mutations” (J Med Chem, 2022).

Tests used:
[1] = Cytotoxicity against mouse IL-3 dependent BaF3 cells assessed as inhibition of cell growth incubated for 72 hrs by CCK-8 assay; assay type: toxicity, cell-based; conditions: BaF3 cells (IL-3 dependent)
[2] = test system: BaF3; assay: Antiproliferative activity against mouse BaF3 cells stably expressing EGFR L858R/T790M/C797S mutant assessed as inhibition of cell growth incubated for 72 hrs by CCK-8 assay; assay type: functional, cell-based; conditions: BaF3, 72 h
[3] = target: Epidermal growth factor receptor (Homo sapiens, UniProt P00533, C797S/L858R/T790M); assay: Inhibition of EGFR L858R/T790M/C797S mutant (unknown origin) by ELISA
[4] = target: Epidermal growth factor receptor (Homo sapiens, UniProt P00533); assay: Inhibition of wild type EGFR (unknown origin) by ELISA
[5] = target: Epidermal growth factor receptor (Homo sapiens, UniProt P00533, L858R/T790M); assay: Inhibition of EGFR L858R/T790M mutant (unknown origin) by ELISA
[6] = target: Epidermal growth factor receptor (Homo sapiens, UniProt P00533, C797S/EX19DEL/T790M); assay: Inhibition of EGFR 19 del/T790M/C797S mutant (unknown origin) by ELISA
[7] = test system: A-431; assay: Antiproliferative activity against human A-431 cells harboring wild type EGFR assessed as reduction in cell viability incubated for 72 hrs by CCK-8 assay; assay type: functional, cell-based; conditions: A-431, 72 h
[8] = test system: PC-9; assay: Antiproliferative activity against human osimertinib-resistant PC-9 cells harboring EGFR 19 del/T790M/C797S mutant assessed as reduction in cell viability incubated for 72 hrs by CCK-8 assay; assay type: functional, cell-based; conditions: PC-9, 72 h
[9] = test system: BaF3; assay: Antiproliferative activity against mouse BaF3 cells harboring EGFR 19 del/T790M/C797S mutant assessed as reduction in cell viability incubated for 72 hrs by CCK8 assay; assay type: functional, cell-based; conditions: BaF3, 72 h
[10] = test system: BaF3; assay: Inhibition of EGFR 19del/T790M/[…] mutant in mouse starved BaF3 cells assessed as reduction in ERK phosphorylation incubated for 120 mins followed by EGF stimulation for 15 mins by Western blot analysis; assay type: cell-based; conditions: time 135.0 min, DDE = dose-dependent effect
[11] = test system: Epidermal growth factor receptor (Homo sapiens), P04626+P00533+Q15303+P21860 [L858R,T790M,C797S]; assay: Inhibition of EGFR L858R/T790M/[…] mutant in mouse starved BaF3 cells assessed as reduction in ERK phosphorylation incubated for 120 mins followed by EGF stimulation for 15 mins by Western blot analysis; assay type: cell-based; conditions: time 135.0 min, DDE = dose-dependent effect
[12] = test system: Epidermal growth factor receptor (Homo sapiens), P04626+P00533+Q15303+P21860 [L858R,T790M,C797S]; assay: Inhibition of EGFR L858R/T790M/[…] mutant in mouse starved BaF3 cells assessed as reduction in EGFR phosphorylation incubated for 120 mins followed by EGF stimulation for 15 mins by Western blot analysis; assay type: cell-based; conditions: time 135.0 min, DDE = dose-dependent effect
[13] = test system: Epidermal growth factor receptor (Homo sapiens), P00533 [UNDEFINED MUTATION]; assay: Inhibition of EGFR 19 del/T790M/C797S mutant in human starved osimertinib-resistant PC-9 cells assessed as reduction in ERK phosphorylation incubated for 120 mins followed by EGF stimulation for 15 mins by Western blot analysis; assay type: cell-based; conditions: time 135.0 min, DDE = dose-dependent effect
[14] = test system: Epidermal growth factor receptor (Homo sapiens), P00533 [UNDEFINED MUTATION]; assay: Inhibition of EGFR 19 del/T790M/C797S mutant in human starved osimertinib-resistant PC-9 cells assessed as reduction in EGFR phosphorylation incubated for 120 mins followed by EGF stimulation for 15 mins by Western blot analysis; assay type: cell-based; conditions: time 135.0 min, DDE = dose-dependent effect
[15] = test system: BaF3; assay: Inhibition of EGFR 19del/T790M/[…] mutant in mouse starved BaF3 cells assessed as reduction in EGFR phosphorylation incubated for 120 mins followed by EGF stimulation for 15 mins by Western blot analysis; assay type: cell-based; conditions: time 135.0 min, DDE = dose-dependent effect

Sequence of Epidermal growth factor receptor (Homo sapiens, UniProt P00533, L858R/T790M) (P00533 25-1210 T790M/L858R limits assumed): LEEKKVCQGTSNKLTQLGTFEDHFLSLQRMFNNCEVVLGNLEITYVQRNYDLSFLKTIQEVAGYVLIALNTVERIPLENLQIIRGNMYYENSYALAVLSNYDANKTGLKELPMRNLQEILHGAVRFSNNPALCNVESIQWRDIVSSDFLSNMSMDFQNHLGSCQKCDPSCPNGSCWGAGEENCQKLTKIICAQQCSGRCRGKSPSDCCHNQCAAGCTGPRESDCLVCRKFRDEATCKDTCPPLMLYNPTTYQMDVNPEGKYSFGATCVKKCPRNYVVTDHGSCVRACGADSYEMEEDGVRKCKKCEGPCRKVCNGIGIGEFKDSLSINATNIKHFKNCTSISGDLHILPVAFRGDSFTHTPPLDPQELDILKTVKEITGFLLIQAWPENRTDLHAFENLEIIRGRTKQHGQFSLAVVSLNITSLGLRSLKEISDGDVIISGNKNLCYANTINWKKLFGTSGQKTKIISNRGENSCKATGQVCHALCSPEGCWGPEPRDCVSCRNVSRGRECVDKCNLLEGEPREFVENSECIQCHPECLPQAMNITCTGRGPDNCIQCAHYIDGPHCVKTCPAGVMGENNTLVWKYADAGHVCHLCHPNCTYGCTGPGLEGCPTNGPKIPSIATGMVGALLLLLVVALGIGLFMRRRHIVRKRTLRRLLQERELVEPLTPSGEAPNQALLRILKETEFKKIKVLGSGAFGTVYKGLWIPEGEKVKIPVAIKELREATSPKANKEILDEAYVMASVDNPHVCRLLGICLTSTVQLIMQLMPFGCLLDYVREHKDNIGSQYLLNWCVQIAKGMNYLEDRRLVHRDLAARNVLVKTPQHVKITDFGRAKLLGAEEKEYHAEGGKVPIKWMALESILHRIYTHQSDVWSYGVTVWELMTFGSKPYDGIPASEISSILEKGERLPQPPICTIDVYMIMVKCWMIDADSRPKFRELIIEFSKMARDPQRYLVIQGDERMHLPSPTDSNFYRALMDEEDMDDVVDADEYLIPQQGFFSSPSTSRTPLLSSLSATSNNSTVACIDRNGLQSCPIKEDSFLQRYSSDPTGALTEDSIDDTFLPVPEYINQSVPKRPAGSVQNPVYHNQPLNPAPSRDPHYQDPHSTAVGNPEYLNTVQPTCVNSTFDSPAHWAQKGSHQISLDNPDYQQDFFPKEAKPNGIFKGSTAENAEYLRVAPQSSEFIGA
Sequence of Epidermal growth factor receptor (Homo sapiens, UniProt P00533, C797S/L858R/T790M) (P00533 25-1210 T790M/C797S/L858R limits assumed): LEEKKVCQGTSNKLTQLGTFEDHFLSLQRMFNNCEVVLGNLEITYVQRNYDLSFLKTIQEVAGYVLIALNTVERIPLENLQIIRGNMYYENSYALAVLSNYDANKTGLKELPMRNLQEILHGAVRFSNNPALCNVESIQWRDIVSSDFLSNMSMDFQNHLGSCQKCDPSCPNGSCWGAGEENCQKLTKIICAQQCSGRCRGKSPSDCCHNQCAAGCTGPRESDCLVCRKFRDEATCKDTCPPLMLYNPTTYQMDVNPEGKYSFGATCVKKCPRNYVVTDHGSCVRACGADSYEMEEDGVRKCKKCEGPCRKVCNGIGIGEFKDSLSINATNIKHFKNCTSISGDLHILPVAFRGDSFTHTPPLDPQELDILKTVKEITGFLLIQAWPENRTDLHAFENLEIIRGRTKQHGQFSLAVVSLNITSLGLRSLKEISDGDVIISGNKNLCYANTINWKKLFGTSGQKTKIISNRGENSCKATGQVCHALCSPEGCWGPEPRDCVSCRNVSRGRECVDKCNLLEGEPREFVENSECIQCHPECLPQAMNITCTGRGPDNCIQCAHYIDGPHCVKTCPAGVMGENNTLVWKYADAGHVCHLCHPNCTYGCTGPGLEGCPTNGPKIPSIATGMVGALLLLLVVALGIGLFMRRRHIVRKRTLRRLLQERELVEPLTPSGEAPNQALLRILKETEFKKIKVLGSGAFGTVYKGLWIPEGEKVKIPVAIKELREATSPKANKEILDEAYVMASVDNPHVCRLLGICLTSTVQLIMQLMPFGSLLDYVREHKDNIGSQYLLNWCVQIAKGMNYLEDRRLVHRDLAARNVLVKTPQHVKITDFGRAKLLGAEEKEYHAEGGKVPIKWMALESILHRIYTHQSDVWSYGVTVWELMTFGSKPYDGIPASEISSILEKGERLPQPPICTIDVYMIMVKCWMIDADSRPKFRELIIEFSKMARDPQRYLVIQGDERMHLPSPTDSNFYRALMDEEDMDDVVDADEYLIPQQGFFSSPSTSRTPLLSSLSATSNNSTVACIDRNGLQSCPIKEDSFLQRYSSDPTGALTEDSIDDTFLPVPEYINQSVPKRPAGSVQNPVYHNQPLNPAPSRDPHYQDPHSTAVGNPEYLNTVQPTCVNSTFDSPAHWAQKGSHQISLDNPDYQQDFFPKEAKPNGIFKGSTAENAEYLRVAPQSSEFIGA
Sequence of Epidermal growth factor receptor (Homo sapiens, UniProt P00533) (P00533 whole entry): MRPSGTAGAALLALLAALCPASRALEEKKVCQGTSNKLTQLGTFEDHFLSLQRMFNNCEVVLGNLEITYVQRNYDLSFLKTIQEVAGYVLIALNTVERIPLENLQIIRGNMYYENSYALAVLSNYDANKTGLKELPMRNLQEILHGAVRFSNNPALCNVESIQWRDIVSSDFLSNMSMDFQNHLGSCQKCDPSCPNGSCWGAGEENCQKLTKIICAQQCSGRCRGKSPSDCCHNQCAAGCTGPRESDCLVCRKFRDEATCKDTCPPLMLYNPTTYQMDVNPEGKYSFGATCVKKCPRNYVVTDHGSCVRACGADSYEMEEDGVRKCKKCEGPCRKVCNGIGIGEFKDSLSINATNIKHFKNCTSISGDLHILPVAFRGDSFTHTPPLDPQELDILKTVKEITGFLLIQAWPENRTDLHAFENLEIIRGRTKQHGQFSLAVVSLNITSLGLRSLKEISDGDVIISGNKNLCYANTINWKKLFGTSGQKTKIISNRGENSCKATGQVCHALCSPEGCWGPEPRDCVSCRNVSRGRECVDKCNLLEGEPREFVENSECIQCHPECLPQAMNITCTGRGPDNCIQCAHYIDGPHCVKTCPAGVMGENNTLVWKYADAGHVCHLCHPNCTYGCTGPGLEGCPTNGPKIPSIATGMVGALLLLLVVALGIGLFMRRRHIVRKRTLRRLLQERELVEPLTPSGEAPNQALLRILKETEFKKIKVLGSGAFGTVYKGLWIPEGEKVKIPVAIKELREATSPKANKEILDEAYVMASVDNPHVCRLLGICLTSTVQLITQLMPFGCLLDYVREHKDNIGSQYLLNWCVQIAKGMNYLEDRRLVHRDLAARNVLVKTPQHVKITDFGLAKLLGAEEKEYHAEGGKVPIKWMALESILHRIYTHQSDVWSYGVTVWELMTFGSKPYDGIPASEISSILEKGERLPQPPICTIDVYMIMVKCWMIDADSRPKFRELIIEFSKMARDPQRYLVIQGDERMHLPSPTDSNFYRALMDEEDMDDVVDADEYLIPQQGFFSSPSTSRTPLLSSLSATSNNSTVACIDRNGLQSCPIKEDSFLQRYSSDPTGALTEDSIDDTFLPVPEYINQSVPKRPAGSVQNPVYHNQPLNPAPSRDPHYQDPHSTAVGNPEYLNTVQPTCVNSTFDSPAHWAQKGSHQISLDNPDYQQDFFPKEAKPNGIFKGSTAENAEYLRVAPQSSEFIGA
Sequence of Epidermal growth factor receptor (Homo sapiens, UniProt P00533, C797S/EX19DEL/T790M) (P00533 whole entry, looked up, stated change not applied): as the sequence (P00533 whole entry) above

| SMILES | IC50 at 72 h [1] [nM] | IC50 [2] [nM] | IC50 [3] [nM] | IC50 [4] [nM] | IC50 [5] [nM] | IC50 [6] [nM] | further results |
| --- | --- | --- | --- | --- | --- | --- | --- |
| CCS(=O)(=O)n1cc2c3ccc(cc31)OCCCCCCOc1cc(c(Cl)cc1N1CCOCC1)Nc1ncc(Cl)c-2n1 | > 10000 | 140 | 57.8 | > 1000 | – | – | – |
| COc1cc(N2CCC(N3CCN(C)CC3)CC2)ccc1Nc1ncc(Cl)c(-c2c[nH]c3ccccc23)n1 | – | – | 124 | > 1000 | 15.6 | 22.6 | – |
| C=CC(=O)Nc1cc(Nc2nccc(-c3cn(C)c4ccccc34)n2)c(OC)cc1N(C)CCN(C)C [OSIMERTINIB] | 3520 | 4270 | – | – | – | – | IC50 [7]: […]; IC50 [8]: 5430 nM; IC50 [9]: 6070 nM |
| CCS(=O)(=O)n1cc2c3cc(ccc31)OCCCCCCOc1cc(ccc1N1CCOCC1)Nc1ncc(Cl)c-2n1 | – | – | > 1000 | > 1000 | – | – | – |
| CCOc1cc(N2CCC(N3CCN(C)CC3)CC2)c(Cl)cc1Nc1ncc(Cl)c(-c2cn(S(=O)(=O)CC)c3ccccc23)n1 | 7860 | 3150 | 4.2 | 344 | 7.5 | 12 | – |
| CCS(=O)(=O)n1cc2c3ccc(cc31)OCCCCCCOc1cc(c(F)cc1N1CCOCC1)Nc1ncc(Cl)c-2n1 | 2560 | 66 | 28 | 885 | – | – | – |
| CCS(=O)(=O)n1cc2c3ccc(cc31)OCCCCCCOc1cc(ccc1N1CCOCC1)Nc1ncc(Cl)c-2n1 | 293 | 16 | 6.2 | 236 | – | – | – |
| CCS(=O)(=O)n1cc2c3ccc(cc31)OCCCCCCCCOc1cc(ccc1N1CCOCC1)Nc1ncc(Cl)c-2n1 | 2440 | 450 | 142 | > 1000 | – | – | – |
| CCS(=O)(=O)n1cc(-c2nc(Nc3cc(Cl)c(N4CCC(N5CCN(C)CC5)CC4)cc3OC(C)C)ncc2Cl)c2ccccc21 | > 10000 | 2770 | 30.8 | 413 | 2.1 | 8.1 | – |
| COc1cc(N2CCC(N3CCN(C)CC3)CC2)ccc1Nc1ncc(Cl)c(-c2cn(S(=O)(=O)C(C)C)c3ccccc23)n1 | – | – | 145 | > 1000 | 18 | 24.2 | – |
| CCS(=O)(=O)n1cc2c3ccc(cc31)OCCCCCCOc1cc(c(C3CC3)cc1N1CCOCC1)Nc1ncc(Cl)c-2n1 | > 10000 | 263 | 56.4 | > 1000 | – | – | – |
| CCS(=O)(=O)n1cc(-c2nc(Nc3cc(Cl)c(N4CCC(N5CCN(C)CC5)CC4)cc3C)ncc2Cl)c2ccccc21 | 1320 | 410 | 1.6 | 547 | 16.3 | 4.7 | – |
| CCS(=O)(=O)n1cc2c3ccc(cc31)OCCCCCCOc1cc(c(C3CCCC3)cc1N1CCOCC1)Nc1ncc(Cl)c-2n1 | – | – | 165 | > 1000 | – | – | – |
| COc1cc(N2CCC(N3CCN(C)CC3)CC2)ccc1Nc1ncc(Cl)c(-c2cn(S(=O)(=O)C3CC3)c3ccccc23)n1 | – | – | 222 | > 1000 | 32.6 | 33.3 | – |
| CCS(=O)(=O)n1cc(-c2nc(Nc3ccc(N4CCC(N5CCN(C)CC5)CC4)c(Cl)c3OC)ncc2Cl)c2ccccc21 | – | – | > 1000 | > 1000 | > 1000 | > 1000 | – |
| CCS(=O)(=O)n1cc2c3ccc(cc31)OCCCCCCOc1cc(c(C)cc1N1CCOCC1)Nc1ncc(Cl)c-2n1 | 2080 | 36 | 23.6 | 308 | – | – | inhibition [10]: Dde; IC50 [7]: 2000 nM; inhibition [11]: Dde; inhibition [12]: Dde; IC50 [8]: 644 nM; inhibition [13]: Dde; inhibition [14]: Dde; inhibition [15]: Dde; IC50 [9]: 52 nM |
| CCS(=O)(=O)n1cc(-c2nc(Nc3ccc(N4CCC(N5CCN(C)CC5)CC4)cc3OC)ncc2Cl)c2ccccc21 | – | – | 34.8 | > 1000 | 5.6 | 5.6 | – |
| COc1cc(N2CCC(N3CCN(C)CC3)CC2)ccc1Nc1ncc(Cl)c(-c2cn(S(C)(=O)=O)c3ccccc23)n1 | – | – | 41.9 | > 1000 | 5.5 | 1.9 | – |
| CCS(=O)(=O)n1cc2c3cc(ccc31)OCCCCCOc1cc(ccc1N1CCOCC1)Nc1ncc(Cl)c-2n1 | – | – | > 1000 | > 1000 | – | – | – |
| CCS(=O)(=O)n1cc(-c2nc(Nc3ccc(N4CCC(N5CCN(C)CC5)CC4)c(Cl)c3)ncc2Cl)c2ccccc21 | – | – | 14.4 | 466 | 2.2 | 4.9 | – |
| CCS(=O)(=O)n1cc(-c2nc(Nc3cc(C(C)C)c(N4CCC(N5CCN(C)CC5)CC4)cc3OC)ncc2Cl)c2ccccc21 | – | – | 478 | > 1000 | 74.3 | 116 | – |
| CCS(=O)(=O)n1cc(-c2nc(Nc3cc(C)c(N4CCC(N5CCN(C)CC5)CC4)cc3OC)ncc2Cl)c2ccccc21 | – | – | 1.5 | 55.9 | 2.7 | 69.2 | – |
| CCc1cc(Nc2ncc(Cl)c(-c3cn(S(=O)(=O)CC)c4ccccc34)n2)c(OC)cc1N1CCC(N2CCN(C)CC2)CC1 | – | – | 21.8 | 262 | 6.3 | 54.8 | – |
| COc1cc(N2CCC(N3CCN(C)CC3)CC2)ccc1Nc1ncc(Cl)c(Nc2ccccc2P(C)(C)=O)n1 [BRIGATINIB] | 1910 | 610 | – | – | – | – | IC50 [7]: 1360 nM; IC50 [8]: 1450 nM; IC50 [9]: 492 nM |
| CCS(=O)(=O)n1cc2c3ccc(cc31)OCCCCCCCOc1cc(ccc1N1CCOCC1)Nc1ncc(Cl)c-2n1 | 773 | 180 | 89.9 | > 1000 | – | – | – |
| CCS(=O)(=O)n1cc(-c2nc(Nc3cc(Cl)c(N4CCC(N5CCN(C)CC5)CC4)cc3OC)ncc2Cl)c2ccccc21 | 4920 | 2610 | 4.3 | 816 | 6.6 | 25.6 | – |
| COc1cc(N2CCC(N3CCN(C)CC3)CC2)ccc1Nc1ncc(Cl)c(-c2cn(C(C)=O)c3ccccc23)n1 | – | – | 77.8 | > 1000 | 12.9 | 8.5 | – |
| CCc1cc(N2CCOCC2)c2cc1Nc1ncc(Cl)c(n1)-c1cn(S(=O)(=O)CC)c3cc(ccc13)OCCCCCCO2 | 4640 | 142 | 32.1 | > 1000 | – | – | – |
| CCS(=O)(=O)n1cc2c3ccc(cc31)OCCCCCOc1cc(ccc1N1CCOCC1)Nc1ncc(Cl)c-2n1 | 349 | 168 | 19 | > 1000 | – | – | – |
| CCS(=O)(=O)n1cc2c3ccc(cc31)OCCCCOc1cc(ccc1N1CCOCC1)Nc1ncc(Cl)c-2n1 | – | – | > 1000 | > 1000 | – | – | – |
